For 13 molecules, modulation and Ki results are on record in article PMC4657098, “A Review of the Updated Pharmacophore for the Alpha 5 GABA(A) Benzodiazepine Receptor Model” (International Journal of Medicinal Chemistry, 2015).

Experiment [1] relates to Bz BS of GABA(A) receptors. Conditions: cited from earlier work.
The target in experiment [2] is T1, α2β3γ2 GABAA/BzR (Homo sapiens, UniProt P18507+P47869). Nature of the experiment: Competition binding to HEK cell membranes, α2β3γ2. Details: expressed in transfected cells.
Experiment [3] concerns the target T2, α5β3γ2 GABAA/BzR (Homo sapiens, UniProt P18507+P31644). Description: Competition binding to HEK cell membranes, α5β3γ2. Details: expressed in transfected cells.
A further experiment concerns the target T3, α4β3γ2 GABAA/BzR (Homo sapiens, UniProt P18507+P48169).
T3 construct: expressed in transfected cells; host or cells: LTK cells (given for XLi-093 only)
Description: biochemical. It is filed as binding.

The target of experiment [4] is T4, α6β3γ2 GABAA/BzR (Homo sapiens, UniProt P18507+Q16445). Description: Competition binding to HEK cell membranes, α6β3γ2. Also on record: expressed in transfected cells.
Experiment [5] deals with T4, α6β3γ2 GABAA/BzR. Also on record: expressed in transfected cells; host or cells: LTK cells (given for XLi-093 only). The settings on record: cited from earlier work.
Experiment [6] addresses T5, α3β3γ2 GABAA/BzR (Homo sapiens, UniProt P18507+P34903). Nature of the experiment: Competition binding to HEK cell membranes, α3β3γ2. Also on record: expressed in transfected cells.
Experiment [7] has as its target T6, α1β3γ2 GABAA/BzR (Homo sapiens, UniProt P14867+P18507). Description: Competition binding to HEK cell membranes, α1β3γ2. Details: expressed in transfected cells.
For experiment [8], the target named is T6, α1β3γ2 GABAA/BzR. Details: expressed in transfected cells; host or cells: LTK cells (given for XLi-093 only). The settings on record: cited from earlier work.
Experiment [9] has as its target T2, α5β3γ2 GABAA/BzR. Also on record: expressed in transfected cells; host or cells: LTK cells (given for XLi-093 only). Conditions: cited from earlier work.
Experiment [10] deals with T5, α3β3γ2 GABAA/BzR. Details: expressed in transfected cells; host or cells: LTK cells (given for XLi-093 only). The settings on record: cited from earlier work.
The target in experiment [11] is T1, α2β3γ2 GABAA/BzR. Also on record: expressed in transfected cells; host or cells: LTK cells (given for XLi-093 only). Conditions: cited from earlier work.

Where two headings read alike, the source gives them in different places. A value given as a limit tells only on which side of the number the result lay.

The term Ki denotes the equilibrium dissociation constant of an inhibitor or competing ligand from its target. For Ro15-4513 [reference compound], in [1], the modulation result is “inverse agonist”. The Ki on α2β3γ2 GABAA/BzR [2] (read-out: Ki α2) worked out at 2.6 nM; on α5β3γ2 GABAA/BzR [3] (read-out: Ki α5), 0.26 nM.

Consider `C[Si](C)(C)C#Cc1ccc2[nH]c3cnc(C(=O)OCC(F)(F)F)cc3c2c1` [WY-B-25], for which the Ki was 2000 nM at α4β3γ2 GABAA/BzR; 40 nM on α2β3γ2 GABAA/BzR [2] (Ki α2); 2000 nM at α6β3γ2 GABAA/BzR [4] (Ki α6); 263 nM on α5β3γ2 GABAA/BzR [3] (Ki α5); over 3000 nM at α6β3γ2 GABAA/BzR [5] (Figure 33, αxβ3γ2, read-out: Affinity Ki α6); 66 nM at α3β3γ2 GABAA/BzR [6] (Ki α3). This molecule yielded a Ki at α1β3γ2 GABAA/BzR [7] (Ki α1) of 7.6 nM.

Regarding `CCOCc1ncn2c1CN(C)C(=O)c1cc(Cl)ccc1-2` [compound 6], the Ki was over 300 nM at α1β3γ2 GABAA/BzR [8] (Figure 4, read-out: Ki α1); 82.7 nM at α5β3γ2 GABAA/BzR [9] (Figure 4, read-out: Ki α5); over 300 nM on α3β3γ2 GABAA/BzR [10] (Figure 4, read-out: Ki α3); over 300 nM on α2β3γ2 GABAA/BzR [11] (Figure 4, read-out: Ki α2); over 300 nM on α6β3γ2 GABAA/BzR [5] (Figure 4, read-out: Ki α6).

Consider `CC(C)(C)OC(=O)c1cc2c(cn1)[nH]c1ccc(F)cc12` [CM-A87], for which the Ki at α1β3γ2 GABAA/BzR [8] (read-out: Affinity Ki α1) was 1.62 nM; at α5β3γ2 GABAA/BzR [9] (read-out: Affinity Ki α5) it was 4.61 nM; on α4β3γ2 GABAA/BzR it was 1000 nM; at α2β3γ2 GABAA/BzR [2] (Ki α2), 4.54 nM; on α2β3γ2 GABAA/BzR [2] (read-out: Ki α2), 4.54 nM; at α6β3γ2 GABAA/BzR [4] (Ki α6) it was 1000 nM. The Ki on α3β3γ2 GABAA/BzR [10] (read-out: Affinity Ki α3) was 14.7 nM; on α5β3γ2 GABAA/BzR [3] (Ki α5), 4.61 nM; at α5β3γ2 GABAA/BzR [3] (read-out: Ki α5) it was 4.61 nM; at α2β3γ2 GABAA/BzR [11] (read-out: Affinity Ki α2), 4.54 nM; on α3β3γ2 GABAA/BzR [6] (Ki α3) it was 14.7 nM; at α3β3γ2 GABAA/BzR [6] (read-out: Ki α3) it was 14.7 nM. For the same molecule, the Ki on α1β3γ2 GABAA/BzR [7] (Ki α1) and on α1β3γ2 GABAA/BzR [7] (read-out: Ki α1) was 1.62 nM each time.

With `Cc1ccc(-c2nc3ccc(C)cn3c2CC(=O)N(C)C)cc1` [zolpidem], in experiment [1] (Supplement Table 1), the modulation result was “agonist”.

As to `CCOC(=O)c1ncc2[nH]c3ccc(OCc4ccccc4)cc3c2c1COC` [ZK 93423, 6-(benzyloxy)-4-(methoxymethyl)-β-carboline-3-carboxylic acid ethyl ester, reference compound], the modulation result in experiment [1] (Supplement Table 1) is listed as “agonist”. Further, the Ki at α2β3γ2 GABAA/BzR [2] (Ki α2) stood at 4.2 nM; at α6β3γ2 GABAA/BzR [4] (Ki α6), 1000 nM; on α5β3γ2 GABAA/BzR [3] (Ki α5) it was 4.5 nM; at α3β3γ2 GABAA/BzR [6] (Ki α3), 6 nM; on α1β3γ2 GABAA/BzR [7] (Ki α1) it was 4.1 nM.

For `CC(C)(C)OC(=O)c1cc2c(cn1)[nH]c1ccc(-c3cccs3)cc12` [35(WYS12)], the Ki at α1β3γ2 GABAA/BzR [8] (read-out: Affinity Ki α1) was 37 nM; on α5β3γ2 GABAA/BzR [9] (read-out: Affinity Ki α5), 2860 nM; at α3β3γ2 GABAA/BzR [10] (read-out: Affinity Ki α3) it was 314 nM; on α2β3γ2 GABAA/BzR [11] (read-out: Affinity Ki α2), 166 nM; on α6β3γ2 GABAA/BzR [5] (read-out: Affinity Ki α6) it was 5000 nM.

On to `CN1C(=O)CN=C(c2ccccc2F)c2cc([N+](=O)[O-])ccc21` [FLUNITRAZEPAM, flunitrazepam], for which the modulation entry in experiment [1] is on record as “agonist”.

For `CCCC(=O)c1cc2c(cn1)[nH]c1ccc(F)cc12` [CM-A57], the Ki is 3.7 nM at α1β3γ2 GABAA/BzR [8] (read-out: Affinity Ki α1); 254 nM at α5β3γ2 GABAA/BzR [9] (read-out: Affinity Ki α5); 27 nM at α2β3γ2 GABAA/BzR [2] (read-out: Ki α2); 1000 nM at α6β3γ2 GABAA/BzR [4] (read-out: Ki α6); 40 nM at α3β3γ2 GABAA/BzR [10] (read-out: Affinity Ki α3); 254 nM at α5β3γ2 GABAA/BzR [3] (read-out: Ki α5). In addition, the inhibitory constant (Ki) at α2β3γ2 GABAA/BzR [11] (read-out: Affinity Ki α2) was 27 nM; at α6β3γ2 GABAA/BzR [5] (read-out: Affinity Ki α6), over 2500 nM; on α3β3γ2 GABAA/BzR [6] (read-out: Ki α3), 40 nM; on α1β3γ2 GABAA/BzR [7] (read-out: Ki α1), 3.7 nM.

In the case of `CC(C)(C)OC(=O)c1cc2c(cn1)[nH]c1ccc(-c3ccccc3)cc12` [WYS15], the Ki at α1β3γ2 GABAA/BzR [8] (read-out: Affinity Ki α1) was 3.63 nM; on α5β3γ2 GABAA/BzR [9] (read-out: Affinity Ki α5) it was 76.5 nM; on α2β3γ2 GABAA/BzR [2] (Ki α2), 2.02 nM; at α2β3γ2 GABAA/BzR [2] (read-out: Ki α2), 2.02 nM; on α6β3γ2 GABAA/BzR [4] (Ki α6), 5000 nM; at α3β3γ2 GABAA/BzR [10] (read-out: Affinity Ki α3) it was 44.3 nM. Further, the Ki was 76.5 nM at α5β3γ2 GABAA/BzR [3] (Ki α5); 76.5 nM on α5β3γ2 GABAA/BzR [3] (read-out: Ki α5); 2.02 nM on α2β3γ2 GABAA/BzR [11] (read-out: Affinity Ki α2); 44.3 nM on α3β3γ2 GABAA/BzR [6] (Ki α3); 44.3 nM on α3β3γ2 GABAA/BzR [6] (read-out: Ki α3); 3.63 nM on α1β3γ2 GABAA/BzR [7] (Ki α1). The Ki on α1β3γ2 GABAA/BzR [7] (read-out: Ki α1) stood at 3.63 nM.

Turning to `C#Cc1ccc2c(c1)C(=O)N1CCC[C@H]1c1c(-c3nc(C)no3)ncn1-2` [compound 7], the Ki is over 89 nM on α1β3γ2 GABAA/BzR [8] (Figure 4, read-out: Ki α1) and 3.7 nM on α5β3γ2 GABAA/BzR [9] (Figure 4, read-out: Ki α5).

In the case of `CCCOc1ccc2[nH]c3cnc(C(=O)OCC)c(COC)c3c2c1` [6-PBC, 6-(propyloxy)-4-(methoxymethyl)-β-carboline-3-carboxylic acid ethyl ester], the modulation entry in experiment [1] (Supplement Table 1) is reported as “partial agonist”. For the same molecule, the Ki at α2β3γ2 GABAA/BzR [2] (Ki α2) is 1.21 nM; at α6β3γ2 GABAA/BzR [4] (Ki α6) it was 1340 nM; at α5β3γ2 GABAA/BzR [3] (Ki α5), 2.39 nM; at α3β3γ2 GABAA/BzR [6] (Ki α3), 2.2 nM; at α1β3γ2 GABAA/BzR [7] (Ki α1), 0.49 nM.

Consider `CN1C(=O)CN=C(c2ccccc2)c2cc(Cl)ccc21` [diazepam], for which the modulation result in experiment [1] is “agonist”.
